Measured values reported in patent US20250108139A1, “PEPTIDE UREA DERIVATIVE, PHARMACEUTICAL COMPOSITION CONTAINING PEPTIDE UREA DERIVATIVE, AND APPLICATION OF PEPTIDE UREA DERIVATIVE” (BIVISION PHARMACEUTICALS, INC, priority 2022, published 2025).

Tests used:
[1] = system: 22rv1 tumor-bearing Balb/c Nude mouse; assay: Treatment efficacy in 22RV1 tumor-bearing mouse model; type: in vivo; details: for T/C: 21st day; for Tumor volume, 21st day of group administration: mean ± standard error
Protocol: Balb/c Nude mouse, approximately 6-8 weeks old, were subcutaneously inoculated with 3×10^6 22rv1 cells (in 50% Matrigel, Corning) into the right scapular region. Once the tumors reached the required size for the experiment, the animals were randomly assigned into 11 experimental groups based on tumor volume, with 5 mouse per group. The body weight and tumor size of the animals were measured. On the day of grouping, treatments were administered as follows: control group (normal saline), group 1 (^177Lu-DB-13, 0.15 mCi/mouse), group 2 (^177Lu-DB-13, 0.45 mCi/mouse), group 3 (^177Lu-DB-13, 0.05 mCi/mouse), group 4 (^177Lu-B-11, 0.05 mCi/mouse), group 5 (^177Lu-DB-11, 0.15 mCi/mouse), group 6 (^177Lu-DB-11, 0.45 mCi/mouse), group 7 (^177Lu-PSMA-617, 0.15 mCi/mouse), group 8 (^177Lu-PSMA-617, 0.45 mCi/mouse), group 9 (^177Lu-DB-19, 0.05 mCi/mouse), group 10 (^177Lu-DB-19, 0.15 mCi/mouse), group 11 (^177Lu-DB-19, 0.45 mCi/mouse). After the start of treatment, general health and appearance were observed daily. Body weight and tumor size were measured at each sampling time point. Any abnormal observations during the study were recorded in the raw data.

[2] = target: PSMA protein (Homo sapiens (Human), UniProt Q04609); assay: Affinity of DB compounds to PSMA protein using Biacore (Effect Example 3); details: Biacore 8K, 15° C., 1:1 binding model; pKD=−Log KD
Sequence of PSMA protein (Q04609 whole entry): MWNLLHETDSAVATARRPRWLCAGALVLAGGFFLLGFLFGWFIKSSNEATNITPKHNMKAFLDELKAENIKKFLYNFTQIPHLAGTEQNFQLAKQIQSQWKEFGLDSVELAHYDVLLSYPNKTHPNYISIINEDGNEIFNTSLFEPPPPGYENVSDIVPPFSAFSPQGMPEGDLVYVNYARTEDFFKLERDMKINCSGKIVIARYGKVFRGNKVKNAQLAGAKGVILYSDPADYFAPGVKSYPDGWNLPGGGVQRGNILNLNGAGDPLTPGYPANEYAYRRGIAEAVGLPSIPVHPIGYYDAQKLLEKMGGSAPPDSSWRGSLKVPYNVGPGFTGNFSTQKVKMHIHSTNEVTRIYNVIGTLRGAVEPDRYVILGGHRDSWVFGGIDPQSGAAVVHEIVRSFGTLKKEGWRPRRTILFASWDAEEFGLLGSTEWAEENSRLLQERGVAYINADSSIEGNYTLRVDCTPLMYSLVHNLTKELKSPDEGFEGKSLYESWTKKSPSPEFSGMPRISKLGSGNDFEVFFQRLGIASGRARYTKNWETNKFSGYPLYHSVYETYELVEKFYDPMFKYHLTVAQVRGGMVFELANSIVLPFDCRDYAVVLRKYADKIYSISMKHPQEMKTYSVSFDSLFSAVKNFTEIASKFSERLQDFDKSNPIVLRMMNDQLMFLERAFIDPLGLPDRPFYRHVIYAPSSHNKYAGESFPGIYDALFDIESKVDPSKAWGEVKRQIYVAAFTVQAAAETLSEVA
Protocol: The affinity of DB compounds to PSMA protein was tested using the Biacore 8K (Cytiva) instrument to detect ligand binding to PSMA protein (Sino Biological). PSMA protein was captured on an SA chip. Before fixing the ligand (flow paths 1 and 2, flow rate of 10 μL/min), PSMA protein (10 μg/mL, flow rate of 5 μL/min, injection time of 600 s) was fixed on flow path 2 using a flow buffer. The sensor surface was adjusted by continuously injecting 1 M NaCl three times in 50 mM NaOH. After each ligand injection, additional cleaning was performed using isopropanol in 1 M NaCl and 50 mM NaOH (flow paths 1 and 2, flow rate of 10 μL/min, injection time of 60 s).
All compounds were dissolved in 100% DMSO and diluted to 10 mM, then further diluted to the appropriate highest concentration in the analysis buffer (PBS, PH 7.4, 1 mM TCEP ([…]), 0.05% P20, 2% DMSO). The analysis was conducted under the following conditions: 15° C. analysis temperature; analysis steps=all set to LMW kinetics; cycle type=single cycle (90 s contact time, 1800 s dissociation time, 30 μL/min flow rate, flow paths 1 and 2); detection in flow=path 2-1. Data evaluation was performed using Biacore Insight Evaluation Software, fitting the data to a 1:1 binding model.
Biacore results are shown in Table 5: pKD=−Log KD, wherein KD is the binding affinity of the compound to PSMA protein measured by Biacore. It is expressed by Kd (M)=Kd (1/s)/Ka (1/Ms). A indicates pKD>8; B indicates 7<pKD<8; C indicates 6<pKD<7; D indicates pKD<6.

[3] = system: PSMA-positive 22rv1 tumor-bearing mouse; assay: 177Lu labeling and animal biodistribution experiment, gamma counter; type: in vivo; details: 177Lu-labeled compound, 24 h after tail vein injection, n = 2
Protocol: Distribution in PSMA-positive tumor-bearing mouse tissues: Tumor-bearing animals (purchased from Shanghai Alamo Pharmaceutical Technology Co., Ltd.) were subcutaneously inoculated with 3×10^6 22rv1 cells (in 50% Matrigel, Corning) into the right shoulder region of 6-9 week old (Balb/c Nude) mouse. Once the tumors had grown to an appropriate size, ^177Lu-radiolabeled DB compounds were injected into the mouse via the tail vein (approximately 1.85 MBq-3.7 MBq/mouse, specific activity: 22423.82 Kbq/μg). After administration, the animals were euthanized using carbon dioxide inhalation at 24 hours. The blood and organs (blood, liver, kidney, muscle, tumor) were collected.
Blood was collected through the abdominal aorta and 100 μL was immediately quantified into designated centrifuge tubes (weighed). After collection, the organs were washed twice with deionized water, dried, placed in pre-weighed tubes, and weighed again to calculate the sample weight. Samples were measured on the day of collection. All blood and tissue samples were measured for radioactivity using a gamma counter. The results are shown in FIGS. 3, 4, 5, 6, 7, and Table 6.

[4] = target: PSMA-expressing cells (22Rv1) (Homo sapiens (Human), UniProt Q04609); assay: Competitive binding against radiolabeled PSMA-617 ligand on 22Rv1 cells; details: unlabeled compound vs radiolabeled PSMA-617 ligand, on ice 2 hours
Sequence of PSMA-expressing cells (22Rv1) (Q04609 whole entry): as above
Protocol: (1) 22Rv1 cells in the logarithmic growth phase were prepared into a cell suspension, and the cell density was adjusted to 1×10^4 cells/mL. 1 mL of the cell suspension was seeded into each well of a 24-well cell culture plate. The cells were cultured overnight in a 37° C. incubator.
(2) The cell culture medium was aspirated, and the cells were washed once with PBS. Then, 975 μL of additive-free medium was added.
(3) To each well, 25 μL of a fixed concentration of radiolabeled PSMA-617 ligand (final concentration in the medium: 2 μCi/mL) and different concentrations (final concentrations in the medium: 1000 ng/ml, 100 ng/mL, 10 ng/mL, 1 ng/mL, 0.1 ng/mL, 0.01 ng/mL, 0.001 ng/mL, 0 ng/ml) of the unlabeled test blocking compounds DB-18, DB-19, DB-13, E-3 were added.
(4) The cells were incubated on ice for 2 hours.
(5) The cells were washed three times with ice-cold PBS.
(6) The cells were lysed with 0.5 mL of 1 M sodium hydroxide, and washed twice with 0.5 mL PBS. The sodium hydroxide (0.5 mL) and PBS (0.5 mL×2) solutions were collected for uptake counting.

[5] = Determination of Log P (n-octanol/water partition); type: physicochemical; details: 177Lu-labeled compound, mean of three tubes
Protocol: Three EP tubes were prepared, each containing 0.1 mL of saturated n-octanol and 80 μL of ultrapure water. Then, 20 μL (approximately 1 MBq) of the ^177Lu-labeled DB-13, DB-18, and DB-19 compound solutions were added to the respective tubes. After shaking evenly, the tubes were centrifuged at room temperature (2000 r/min, 5 minutes, centrifugation radius of 10 cm). From each tube, 100 μL was taken from both the lipid layer and the aqueous layer, and the radioactivity counts per minute for both phases were measured. The Log P values were calculated, and their mean values were taken as the final result.

[6] = system: albumin in rat plasma; assay: Plasma protein binding (PPB) test by ultrafiltration; type: in vitro ADME; details: 177Lu-labeled compound
Protocol: The labeled compounds ^177Lu-E-3, 177Lu-DB-13, 177Lu-DB-18, and ^177Lu-DB-19 (1 μCi) were prepared in a reaction solution by adding 50 μL of PBS to achieve a concentration of 20 μCi/mL. 50 μL of the 20 μCi/mL reaction solution was added to 200 μL of plasma, repeated for 3 tubes. The mixture was mixed well and incubated at room temperature for 10 minutes, then added to ultrafiltration tubes and centrifuged at 13000 rpm for 45 minutes. Following this, 50 μL of normal saline was added and the samples were centrifuged again for 15 minutes. The upper chamber and the filtrate were respectively counted for radioactivity.
PPB=[(upper chamber counts−background counts]/(filtrate counts+upper chamber counts−2*background counts)]*100%.

[7] = target: hPSMA-biotin (Homo sapiens (Human), UniProt Q04609); assay: Binding kinetics and affinity with PSMA protein by Biacore 8K (Effect Example 1); details: for Kd / kd / kon: 1:1 binding model; for kon: read-out: ka
Sequence of hPSMA-biotin (Q04609 whole entry): as above
Protocol: The dissociation constant was determined using the Biacore 8K (GE Healthcare) following the manufacturer's instructions. In brief, PSMA-bio protein, diluted in PBS pH 7.4 with 1 mM TCEP, 0.05% Tween 20, and 2% DMSO buffer, was immobilized on the flow cell of an SA sensor chip. Using PBS pH 7.4, 1 mM TCEP, 0.05% Tween 20, and 2% DMSO as the running buffer, five serial dilutions of the PSMA-targeting candidate molecules were injected into the flow cell at a rate of 30 μL/min, with a binding time of 90 seconds. The buffer flow was maintained for 1800 seconds to allow dissociation. The KD values for the interaction between the candidate small molecules and the PSMA protein were evaluated using Biacore 8K evaluation software 1.0 and a 1:1 binding model.

## O=C([O-])CN1CCN(CC(=O)[O-])CCN(CC(=O)NCC2CCC(C(=O)N[C@@H](Cc3ccc4ccccc4c3)C(=O)NCCCC[C@H](NC(=O)N[C@@H](CCC(=O)O)C(=O)O)C(=O)O)CC2)CCN(CC(=O)[O-])CC1.[177Lu+3] (stereo partly drawn) [177Lu-PSMA-617]
[1]; 0.15 mCi/mouse
  T/C: 97.41%
  Tumor volume, 21st day of group administration: 2,616.99 ± 203.91 mm^3
[1]; 0.45 mCi/mouse
  T/C: 101.47%
  Tumor volume, 21st day of group administration: 2,726.19 ± 926.52 mm^3

## O=C(O)CC[C@H](NC(=O)N[C@@H](CCCCNC(=O)[C@H](Cc1ccc2ccccc2c1)NC(=O)c1ccc2c(c1)CCN(C(=O)CN1CCN(CC(=O)O)CCN(CC(=O)O)CCN(CC(=O)O)CC1)C2)C(=O)O)C(=O)O [Compound E-3, reference compound]
[2]
  Kd: < 10 nM
[3]
  Blood uptake: 0.02 % ID/g
  Kidney uptake: 2.01 % ID/g
  Liver uptake: 0.09 % ID/g
  Muscle uptake: 0.035 % ID/g
  Tumor uptake: 32.875 % ID/g
[4]
  IC50: 2.06 nM
[5]
  logP: -3.46
[6]
  plasma protein binding ratio (albumin binding ratio): 86.61%

## O=C(O)CC[C@H](NC(=O)N[C@@H](CCCCNC(=O)[C@H](Cc1ccc2ccccc2c1)NC(=O)[C@H]1CC[C@H](CNC(=O)c2cc(NC(=O)CN3CCN(CC(=O)O)CCN(CC(=O)O)CCN(CC(=O)O)CC3)cc(C(=O)NC[C@H]3CC[C@H](C(=O)N[C@@H](Cc4ccc5ccccc5c4)C(=O)NCCCC[C@H](NC(=O)N[C@@H](CCC(=O)O)C(=O)O)C(=O)O)CC3)c2)CC1)C(=O)O)C(=O)O [DB-01]
[7]
  binding affinity compared with PSMA-617: slightly higher than that of PSMA-617
  Kd: 0.12 nM
  kd: 2.65e-05 s⁻¹
  kon: 222000 M⁻¹ s⁻¹
[2]
  Kd: < 10 nM

## O=C(O)CC[C@H](NC(=O)N[C@@H](CCCCNC(=O)[C@H](Cc1ccc2ccccc2c1)NC(=O)c1ccc2c(c1)CCN(C(=O)CCC(=O)NCCCC[C@H](NC(=O)CCC(=O)N1CCc3cc(C(=O)N[C@@H](Cc4ccc5ccccc5c4)C(=O)NCCCC[C@H](NC(=O)N[C@@H](CCC(=O)O)C(=O)O)C(=O)O)ccc3C1)C(=O)NCCNC(=O)CN1CCN(CC(=O)O)CCN(CC(=O)O)CCN(CC(=O)O)CC1)C2)C(=O)O)C(=O)O [DB-11]
[2]
  Kd: < 10 nM
[3]
  Blood uptake: 1.125 % ID/g
  Kidney uptake: 87.105 % ID/g
  Liver uptake: 1.625 % ID/g
  Muscle uptake: 0.055 % ID/g
  Tumor uptake: 41.83 % ID/g
[1]; high dose 0.45 mCi, effect decreased over time, remained higher than PSMA-617
  tumor growth inhibition: a certain degree of tumor growth inhibition

## O=C(O)CC[C@H](NC(=O)NC(CCCCNC(=O)[C@H](Cc1ccc2ccccc2c1)NC(=O)c1ccc2c(c1)CCN(C(=O)c1cc(NC(=O)CN3CCN(CC(=O)O)CCN(CC(=O)O)CCN(CC(=O)O)CC3)cc(C(=O)N3CCc4cc(C(=O)N[C@@H](Cc5ccc6ccccc6c5)C(=O)NCCCC[C@H](NC(=O)N[C@@H](CCC(=O)O)C(=O)O)C(=O)O)ccc4C3)c1)C2)C(=O)O)C(=O)O (stereo partly drawn) [DB-18]
[2]
  Kd: < 10 nM
[4]
  IC50: 2.58 nM
[5]
  logP: -1.86
[6]
  plasma protein binding ratio (albumin binding ratio): 70.51%

## O=C(O)CC[C@H](NC(=O)NC(CCCCNC(=O)[C@H](Cc1ccc2ccccc2c1)NC(=O)c1ccc2c(c1)CCN(C(=O)CNC(=O)c1cc(NC(=O)CNC(=O)CN3CCN(CC(=O)O)CCN(CC(=O)O)CCN(CC(=O)O)CC3)cc(C(=O)NCC(=O)N3CCc4cc(C(=O)N[C@@H](Cc5ccc6ccccc6c5)C(=O)NCCCC[C@H](NC(=O)N[C@@H](CCC(=O)O)C(=O)O)C(=O)O)ccc4C3)c1)C2)C(=O)O)C(=O)O (stereo partly drawn) [DB-19]
[2]
  Kd: < 10 nM
[3]
  Blood uptake: 1.715 % ID/g
  Kidney uptake: 177.885 % ID/g
  Liver uptake: 2.725 % ID/g
  Muscle uptake: 0.73 % ID/g
[4]
  IC50: 0.93 nM
[5]
  logP: -1.79
[6]
  plasma protein binding ratio (albumin binding ratio): 59.07%
[1]; two doses, 0.15 mCi and 0.45 mCi
  tumor growth inhibition compared with PSMA-617: superior tumor growth inhibition

## O=C(O)CC[C@H](NC(=O)N[C@@H](CCCCNC(=O)[C@H](Cc1ccc2ccccc2c1)NC(=O)[C@H]1CC[C@H](CNC(=O)CN2CCN(CC(=O)O)CCN(CC(=O)O)CCN(CC(=O)O)CC2)CC1)C(=O)O)C(=O)O [PSMA-617, reference compound]
[7]
  Kd: 0.483 nM
  kd: 4.88e-05 s⁻¹
  kon: 101000 M⁻¹ s⁻¹
[2]
  Kd: < 10 nM
